The subject of experiment [1] is TRPV3. The following applies: read-out: IC50, TRPV3 inhibition; cited from earlier work.
Experiment [2] has as its target T1, hTRPV3 single channel (Homo sapiens, UniProt Q8NET8).
T1 construct: expressed in transfected cells; host or cells: HEK293T
T1 sequence (Q8NET8 1-790): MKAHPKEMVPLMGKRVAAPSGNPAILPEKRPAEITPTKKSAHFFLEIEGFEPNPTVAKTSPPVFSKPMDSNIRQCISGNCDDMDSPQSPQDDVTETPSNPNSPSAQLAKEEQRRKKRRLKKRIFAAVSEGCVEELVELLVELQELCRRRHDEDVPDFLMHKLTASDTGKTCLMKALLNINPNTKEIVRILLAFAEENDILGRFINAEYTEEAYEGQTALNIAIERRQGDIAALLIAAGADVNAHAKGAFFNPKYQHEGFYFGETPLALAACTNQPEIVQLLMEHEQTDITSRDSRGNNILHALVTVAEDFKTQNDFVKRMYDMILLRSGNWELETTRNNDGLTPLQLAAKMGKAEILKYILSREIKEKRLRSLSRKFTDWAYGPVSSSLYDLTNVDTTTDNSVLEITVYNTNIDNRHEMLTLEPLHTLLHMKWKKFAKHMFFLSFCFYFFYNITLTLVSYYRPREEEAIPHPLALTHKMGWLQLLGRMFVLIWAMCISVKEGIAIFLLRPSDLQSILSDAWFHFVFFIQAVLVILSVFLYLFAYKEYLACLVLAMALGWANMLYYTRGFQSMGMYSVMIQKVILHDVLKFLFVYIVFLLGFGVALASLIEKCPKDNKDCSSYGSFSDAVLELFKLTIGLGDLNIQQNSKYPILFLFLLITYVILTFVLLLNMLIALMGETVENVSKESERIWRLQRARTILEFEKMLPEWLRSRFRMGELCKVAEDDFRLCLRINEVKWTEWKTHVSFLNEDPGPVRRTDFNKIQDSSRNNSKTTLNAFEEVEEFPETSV
As to the kind of experiment: Inside-out single-channel recording of hTRPV3. Format: cell-based. Particulars: −60 mV.

The target in experiment [3] is T2, hTRPV3 T636A mutant (Homo sapiens, UniProt Q8NET8, T636A).
T2 construct: expressed in transfected cells; host or cells: HEK293T
T2 sequence (Q8NET8 1-790 T636A): T1 sequence (Q8NET8 1-790) with T636A
Kind of experiment: Whole-cell patch-clamp of hTRPV3 T636A mutant in HEK293T cells. Format: cell-based.

The target in experiment [4] is T3, human TRPV3 (hTRPV3) channel (Homo sapiens, UniProt Q8NET8).
T3 construct: expressed in transfected cells; host or cells: HEK293T
T3 sequence (Q8NET8 1-790): T1 sequence (Q8NET8 1-790)
As to the kind of experiment: Whole-cell patch-clamp of hTRPV3 currents in transfected HEK293T cells. Format: cell-based.

Experiment [5] deals with T4, hTRPV3 I637A mutant (Homo sapiens, UniProt Q8NET8, I637A).
T4 construct: expressed in transfected cells; host or cells: HEK293T
T4 sequence (Q8NET8 1-790 I637A): T1 sequence (Q8NET8 1-790) with I637A
As to the kind of experiment: Whole-cell patch-clamp of hTRPV3 I637A mutant in HEK293T cells. Format: cell-based. Particulars: I637A hTRPV3, 50 μM 2-APB, +80 mV, Hill fit; read-out: IC50, inhibition of I637A mutant outward currents.

[6] abbreviates: agonist carvacrol at 300 μM alone.

Residue numbers refer to the chain shown, from its start. Read-outs that look alike come from different tables or passages of the source.

In the case of forsythiaside B, in experiment [1], the IC50 was 6.7 ± 0.7 µM.
Turning to `NCCOB(c1ccccc1)c1ccccc1` [2-APB, 2-aminoethoxydiphenylborate], in experiment [2] (agonist 2-APB 50 μM alone), the “open frequency (Freq)” value is on record as 75.05 ± 6.63 Hz, the single-channel conductance turned out to be 161.6 ± 3.8 pS and the “single-channel open probability (POPEN)” value is given as 0.72 ± 0.06.
Consider `O=C(/C=C/c1ccc(O)c(O)c1)OCCc1ccccc1` [CAPE, caffeic acid phenethyl ester], for which the IC50 in experiment [3] was found to be 506 ± 57.3 µM; in experiment [4], 277 ± 41.9 µM.
With `COC(=O)/C=C/c1ccc(O)c(O)c1` [CAMC, caffeic acid methyl caffeate], the IC50 in experiment [3] (T636A hTRPV3, 50 μM 2-APB, +80 mV, Hill fit, read-out: IC50, inhibition of T636A mutant outward currents) is 417 ± 45.1 µM; in experiment [5], 522 ± 43.8 µM; in experiment [4] (WT hTRPV3 in HEK293T, whole-cell, activated by 50 μM 2-APB, at +80 mV, Hill fit, mean ± SD, read-out: IC50, inhibition of hTRPV3 currents), 410 ± 57.9 µM.
On to `O=C(/C=C/c1ccc(O)c(O)c1)O[C@@H]1[C@@H](OC(=O)/C=C/c2ccc(O)c(O)c2)C[C@@](O)(C(=O)O)C[C@@H]1O` [isochlorogenic acid B], for which the IC50 in experiment [1] was 0.9 ± 0.3 µM.
As to `Cc1ccc(C(C)C)cc1O` [carvacrol], in experiment [2] (setting [6]), the “open frequency (Freq)” value was determined as 53.55 ± 7.27 Hz, the single-channel conductance is 179.4 ± 12.8 pS and the “single-channel open probability (POPEN)” value worked out at 0.56 ± 0.05.
With `C[C@@H]1O[C@@H](O[C@@H]2[C@@H](O)[C@H](OCCc3ccc(O)c(O)c3)O[C@H](CO)[C@H]2OC(=O)/C=C/c2ccc(O)c(O)c2)[C@H](O)[C@H](O)[C@H]1O` [verbascoside], the IC50 in experiment [1] is 14.1 ± 3.3 µM.
Regarding `O=C(/C=C/c1ccc(O)c(O)c1)O[C@@H]1C[C@](O)(C(=O)O)C[C@@H](OC(=O)/C=C/c2ccc(O)c(O)c2)[C@H]1O` [isochlorogenic acid A], the IC50 in experiment [1] was 2.7 ± 1.3 µM.
